Data published in patent US12503436B2, “Compounds and compositions for treating conditions associated with STING activity” (NOVARTIS PHARMA AG, priority 2021, dated 2025).

Each compound was assayed against STING (Homo sapiens, UniProt Q86WV6, G230A/H232R/R293Q/R71H) (assay: STING reporter assay in THP1-Dual KO-IFNAR2 cells (2′3′cGAMP stimulation, luciferase reporter)). Conditions: 15 μM 2′3′cGAMP stimulation, 24 h, read-out: Pharmaron, THP1_IFNAR2 STING 24 h Luci Normalized: GeoMean EC50.
Format: cell-based
Protocol: STING pathway activation by the compounds described herein was measured using THP1-Dual™ cells (KO-IFNAR2).
THP1-Dual™ KO-IFNAR2 Cells (obtained from InvivoGen) were maintained in RPMI, 10% FCS, 5 ml P/S, 2 mM L-glut, 10 mM Hepes, and 1 mM sodium pyruvate. Compounds were spotted in empty 384 well tissue culture plates (Greiner 781182) by Echo for a final concentration of 0.0017-100 μM. Cells were plated into the TC plates at 40 μL per well, 2×10E6 cells/mL. For activation with STING ligand, 2′3′cGAMP (MW 718.38, obtained from Invivogen), was prepared in Optimem media.
The following solutions were prepared for each 1×384 plate: • Solution A: 2 mL Optimem with one of the following stimuli: • 60 μL of 10 mM 2′3′cGAMP→150 μM stock • Solution B: 2 mL Optimem with 60 μL Lipofectamine 2000→Incubate 5 min at RT
2 mL of solution A and 2 ml Solution B was mixed and incubated for 20 min at room temperature (RT). 20 μL of transfection solution (A+B) was added on top of the plated cells, with a final 2′3′cGAMP concentration of 15 μM. The plates were then centrifuged immediately at 340 g for 1 minute, after which they were incubated at 37° C., 5% CO2, >98% humidity for 24 h. Luciferase reporter activity was then measured. EC50 values were calculated by using standard methods known in the art.
Luciferase reporter assay: 10 μL of supernatant from the assay was transferred to white 384-plate with flat bottom and squared wells. One pouch of QUANTI-Luc™ Plus was dissolved in 25 mL of water. 100 μL of QLC Stabilizer per 25 mL of QUANTI-Luc™ Plus solution was added. 50 μL of QUANTI-Luc™ Plus/QLC solution per well was then added. Luminescence was measured on a Platereader (e.g., Spectramax I3X (Molecular Devices GF3637001)).
Luciferase reporter activity was then measured. EC50 values were calculated by using standard methods known in the art.

STING, sequence (Q86WV6 whole entry R71H/G230A/H232R/R293Q): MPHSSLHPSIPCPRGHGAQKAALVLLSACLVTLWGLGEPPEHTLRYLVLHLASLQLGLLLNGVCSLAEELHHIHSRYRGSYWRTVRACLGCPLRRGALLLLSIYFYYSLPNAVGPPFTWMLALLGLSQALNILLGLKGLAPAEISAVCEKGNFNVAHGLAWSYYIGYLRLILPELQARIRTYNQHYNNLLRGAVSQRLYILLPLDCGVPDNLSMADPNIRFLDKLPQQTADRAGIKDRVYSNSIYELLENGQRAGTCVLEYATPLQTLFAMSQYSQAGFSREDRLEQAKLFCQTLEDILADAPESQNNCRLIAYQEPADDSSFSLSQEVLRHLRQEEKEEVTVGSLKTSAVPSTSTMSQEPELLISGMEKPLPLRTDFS

| Compound | EC50 |
| --- | --- |
| C[C@H]1C[C@@H](C(=O)Nc2c[nH]c3ccc(OCC[C@@H]4C[C@@H]5CN(CC(F)(F)F)C[C@@H]5C4)cc23)C1 [Compound 150, (1R,3S)—N-(5-{2-[(3aR,5S,6aS)-2-(2,2,2-trifluoroethyl)-octahydrocyclopenta[c]pyrrol-5-yl]ethoxy}-1H-indol-3-yl)-3-methylcyclobutane-1-carboxamide] | 200 to 1000 nM |
| CC1(F)CC(C(=O)Nc2c[nH]c3ccc(OCC[C@@H]4C[C@@H]5CN(CC(F)(F)F)C[C@@H]5C4)cc23)C1 (stereo partly drawn) [Compound 151, 3-fluoro-3-methyl-N-(5-(2-((3aR,5r,6aS)-2-(2,2,2-trifluoroethyl)octahydrocyclopenta[c]pyrrol-5-yl)ethoxy)-1H-indol-3-yl)cyclobutane-1-carboxamide] | 200 to 1000 nM |
| CC1(C(=O)Nc2c[nH]c3ccc(OCc4ccc(C(F)(F)F)cc4)cc23)CCOC1 (stereo not drawn) [Compound 154, 3-methyl-N-(5-((4-(trifluoromethyl)benzyl)oxy)-1H-indol-3-yl)tetrahydrofuran-3-carboxamide] | 200 to 1000 nM |
| O=C(Nc1c[nH]c2ccc(OCc3ccc(C(F)(F)F)cc3)cc12)C1CCOCC1 [Compound 156, N-(5-{[4-(trifluoromethyl)phenyl]methoxy}-1H-indol-3-yl)oxane-4-carboxamide] | 200 to 1000 nM |
| CC(C)(C)CC(=O)Nc1c[nH]c2ccc(O[C@H]3C[C@@H](c4ccc(C(F)(F)F)cc4)C3)cc12 [Compound 157, 3,3-dimethyl-N-(5-(cis-3-(4-(trifluoromethyl)phenyl)cyclobutoxy)-1H-indol-3-yl)butanamide] | 40 to 200 nM |
| O=C(Nc1c[nH]c2ccc(O[C@H]3C[C@@H](c4ccc(C(F)(F)F)cc4)C3)cc12)C1CC(CO)C1 (stereo partly drawn) [Compound 158, 3-(hydroxymethyl)-N-(5-(cis-3-(4-(trifluoromethyl)phenyl)cyclobutoxy)-1H-indol-3-yl)cyclobutane-1-carboxamide] | 40 to 200 nM |
| COC1CC(C(=O)Nc2c[nH]c3ccc(O[C@H]4C[C@@H](c5ccc(C(F)(F)F)cc5)C4)cc23)C1 (stereo partly drawn) [Compound 159, 3-methoxy-N-{5-[(1S,3S)-3-[4-(trifluoromethyl)phenyl]cyclobutoxy]-1H-indol-3-yl}cyclobutane-1-carboxamide] | 40 to 200 nM |
| CC1(C(=O)Nc2c[nH]c3ccc(OCC[C@@H]4C[C@@H]5CN(CC(F)(F)F)C[C@@H]5C4)cc23)CCOCC1 [Compound 161, 4-methyl-N-(5-(2-((3aR,5r,6aS)-2-(2,2,2-trifluoroethyl)octahydrocyclopenta[c]pyrrol-5-yl)ethoxy)-1H-indol-3-yl)tetrahydro-2H-pyran-4-carboxamide] | 40 to 200 nM |
| O=C(Nc1c[nH]c2ccc(OCCc3ccc(C(F)(F)F)cc3)cc12)C1COC1 [Compound 163, N-(5-(4-(trifluoromethyl)phenethoxy)-1H-indol-3-yl)oxetane-3-carboxamide] | 40 to 200 nM |
| CC1(C(=O)Nc2c[nH]c3ccc(CCOc4ccc(C(F)(F)F)cc4)cc23)COC1 [Compound 165, 3-methyl-N-(5-(2-(4-(trifluoromethyl)phenoxy)ethyl)-1H-indol-3-yl)oxetane-3-carboxamide] | 40 to 200 nM |
| CCC(=O)Nc1c[nH]c2ccc(CCOc3ccc(C)cc3)cc12 [Compound 168, N-(5-(2-(p-tolyloxy)ethyl)-1H-indol-3-yl)propionamide] | 200 to 1000 nM |
| CC(=O)Nc1c[nH]c2ccc(OCCc3ccc(S(F)(F)(F)(F)F)cc3)cc12 [Compound 169, N-(5-(4-(pentafluoro-16-sulfaneyl)phenethoxy)-1H-indol-3-yl)acetamide] | 40 to 200 nM |
| O=C(Nc1c[nH]c2ccc(CCOc3ccc(C(F)(F)F)cc3)cc12)C1CC1(F)Cl (stereo not drawn) [Compound 175, 2-chloro-2-fluoro-N-(5-(2-(4-(trifluoromethyl)phenoxy)ethyl)-1H-indol-3-yl)cyclopropane-1-carboxamide] | 200 to 1000 nM |
| O=C(Nc1c[nH]c2ccc(CCOc3ccc(C(F)(F)F)cc3)cc12)C1CC(Cl)C1 (stereo not drawn) [Compound 177, 3-chloro-N-(5-(2-(4-(trifluoromethyl)phenoxy)ethyl)-1H-indol-3-yl)cyclobutane-1-carboxamide] | 200 to 1000 nM |
| CC1(C(=O)Nc2c[nH]c3ccc(CCOc4ccc(C(F)(F)F)cc4)cc23)CCOC1 (stereo not drawn) [Compound 178, 3-methyl-N-(5-(2-(4-(trifluoromethyl)phenoxy)ethyl)-1H-indol-3-yl)tetrahydrofuran-3-carboxamide] | 200 to 1000 nM |

Second part, the compound after the results:

| EC50 | Compound |
| --- | --- |
| 40 to 200 nM | O=C(Nc1c[nH]c2ccc(OCCc3ccc(C(F)(F)F)cc3)cc12)C1CN(CC(F)F)C1 [Compound 149, 1-(2,2-difluoroethyl)-N-(5-(4-(trifluoromethyl)phenethoxy)-1H-indol-3-yl)azetidine-3-carboxamide] |
| 200 to 1000 nM | O=C(Nc1c[nH]c2ccc(OCC[C@@H]3C[C@@H]4CN(CC(F)(F)F)C[C@@H]4C3)cc12)C1CCOCC1 [Compound 152, N-(5-{2-[(3aR,5S,6aS)-2-(2,2,2-trifluoroethyl)-octahydrocyclopenta[c]pyrrol-5-yl]ethoxy}-1H-indol-3-yl)oxane-4-carboxamide] |
| 200 to 1000 nM | O=C(Nc1c[nH]c2ccc(OCc3ccc(C(F)(F)F)cc3)cc12)C1CC(CO)C1 (stereo not drawn) [Compound 153, 3-(hydroxymethyl)-N-(5-((4-(trifluoromethyl)benzyl)oxy)-1H-indol-3-yl)cyclobutane-1-carboxamide] |
| 200 to 1000 nM | CC1(C)CC1C(=O)Nc1c[nH]c2ccc(OCc3ccc(C(F)(F)F)cc3)cc12 (stereo not drawn) [Compound 155, 2,2-dimethyl-N-(5-((4-(trifluoromethyl)benzyl)oxy)-1H-indol-3-yl)cyclopropane-1-carboxamide] |
| 200 to 1000 nM | CC1(C(=O)Nc2c[nH]c3ccc(OCC[C@@H]4C[C@@H]5CN(CC(F)(F)F)C[C@@H]5C4)cc23)CCCO1 (stereo partly drawn) [Compound 160, 2-methyl-N-(5-(2-((3aR,5r,6aS)-2-(2,2,2-trifluoroethyl)octahydrocyclopenta[c]pyrrol-5-yl)ethoxy)-1H-indol-3-yl)tetrahydrofuran-2-carboxamide] |
| 40 to 200 nM | C[C@H]1C[C@@H](C(=O)Nc2c[nH]c3ccc(OCCc4ccc(C(F)(F)F)cc4)cc23)C1 [Compound 162, cis-3-methyl-N-(5-(4-(trifluoromethyl)phenethoxy)-1H-indol-3-yl)cyclobutane-1-carboxamide] |
| 200 to 1000 nM | O=C(Nc1c[nH]c2ccc(CCOc3ccc(C(F)(F)F)cc3)cc12)C1COC1 [Compound 164, N-(5-(2-(4-(trifluoromethyl)phenoxy)ethyl)-1H-indol-3-yl)oxetane-3-carboxamide] |
| 40 to 200 nM | CC1(C(=O)Nc2c[nH]c3ccc(OCc4ccc(C(F)(F)F)cc4)cc23)COC1 [Compound 166, 3-methyl-N-(5-((4-(trifluoromethyl)benzyl)oxy)-1H-indol-3-yl)oxetane-3-carboxamide] |
| 200 to 1000 nM | O=C(Nc1c[nH]c2ccc(CCOc3ccc(C(F)(F)F)nc3)cc12)C1CC1 [Compound 167, N-(5-(2-((6-(trifluoromethyl)pyridin-3-yl)oxy)ethyl)-1H-indol-3-yl)cyclopropanecarboxamide] |
| 200 to 1000 nM | CC(=O)Nc1c[nH]c2ccc(CCOc3ccc(C4CCN(CC(F)(F)F)CC4)cc3)cc12 [Compound 170, N-(5-(2-(4-(1-(2,2,2-trifluoroethyl)piperidin-4-yl)phenoxy)ethyl)-1H-indol-3-yl)acetamide] |
| 1000 to 5000 nM | CC(=O)Nc1c[nH]c2ccc(OCCC3CC4(C3)CN(CC(F)(F)F)C4)cc12 [Compound 171, N-(5-(2-(2-(2,2,2-trifluoroethyl)-2-azaspiro[3.3]heptan-6-yl)ethoxy)-1H-indol-3-yl)acetamide] |
| 200 to 1000 nM | CC1(C(=O)Nc2c[nH]c3ccc(C(O)CCc4ccc(C(F)(F)F)cc4)cc23)CC1 (stereo not drawn) [Compound 172, N-(5-(1-hydroxy-3-(4-(trifluoromethyl)phenyl)propyl)-1H-indol-3-yl)-1-methylcyclopropane-1-carboxamide] |
| 5000 to 100000 nM | CC(=O)Nc1c[nH]c2cc(Br)c(OCCc3ccc(C(F)(F)F)cc3)cc12 [Compound 173, N-(6-bromo-5-(4-(trifluoromethyl)phenethoxy)-1H-indol-3-yl)acetamide] |
| 200 to 1000 nM | CC1(C(=O)Nc2c[nH]c3ccc(CC(O)Cc4ccc(C(F)(F)F)cc4)cc23)CC1 (stereo not drawn) [Compound 174, N-(5-(2-hydroxy-3-(4-(trifluoromethyl)phenyl)propyl)-1H-indol-3-yl)-1-methylcyclopropane-1-carboxamide] |
| 200 to 1000 nM | COCC1(C(=O)Nc2c[nH]c3ccc(CCOc4ccc(C(F)(F)F)cc4)cc23)CC1 [Compound 176, 1-(methoxymethyl)-N-(5-{2-[4-(trifluoromethyl)phenoxy]ethyl}-1H-indol-3-yl)cyclopropane-1-carboxamide] |
